For experiment [1], the target named is T1, KOR (Mus musculus, UniProt P33534).
T1 construct: expressed in transfected cells; membrane homogenate
In words: Competitive radioligand binding assay, KOR. The following applies: for radioligand binding affinity (Ki, nM) KOR: [3H]diprenorphine, mKOR-CHO membranes; for selectivity ratio δ/κ / selectivity ratio μ/κ: ratio of Ki values.

Experiment [2] concerns the target T2, MOR (Mus musculus, UniProt P42866). In words: Competitive radioligand binding assay, MOR. Set-up: expressed in transfected cells; membrane homogenate.
The target of experiment [3] is T2, MOR. In words: [35S]-GTPγS functional assay, MOR. It counts as biochemical. On the set-up: expressed in transfected cells; membrane homogenate. The conditions noted are these: for Emax: read-out: [35S]-GTPγS functional activity MOR Emax (%).
Experiment [4] addresses T3, DOR (Homo sapiens, UniProt P41143).
T3 construct: expressed in transfected cells; membrane homogenate
In words: [35S]-GTPγS functional assay, DOR. It counts as biochemical. The following applies: for EC50: hDOR-CHO membranes; for Emax: percent of SNC80 full agonist control.

Experiment [5] addresses T3, DOR. In words: Competitive radioligand binding assay, DOR.
Experiment [6] deals with male Swiss Webster mice. In words: Warm-water tail immersion assay, agonism (single dose screen and potency). It counts as in vivo, mouse. The following applies: for ED50: Mus musculus, sc, read-out: potency ED50 [95% CI] mg/kg, s.c., 20 min prior to tail withdrawal latency measurement, male Swiss Webster mice; for percent MPE / antinociception compared to the vehicle group: single dose 10 mg/kg s.c.; for percent MPE: withdrawal latency 20 min after administration; for antinociception compared to the vehicle group: 20 min.

Experiment [7] has as its target T1, KOR. In words: [35S]-GTPγS functional assay, KOR. The conditions noted are these: for EC50: mKOR-CHO membranes; for Emax: percent of U50,488 full agonist control. It counts as biochemical.
The mark [8] stands for this setting: [3H]naloxone, mMOR-CHO membranes.

Where a name gives a salt, the structure may show the parent alone. Read-outs that look alike come from different tables or passages of the source.

In the case of `CN(C(=O)CCc1ccoc1)[C@H]1CC[C@@]2(O)[C@H]3Cc4cccc5c4[C@@]2(CCN3CC2CC2)[C@H]1O5` [Compound 1, 17-Cyclopropylmethyl-4,5α-epoxy-6α-[3′-(furan-3″-yl)N-methylpropanamido]-14β-hydroxymorphinan Hydrochloride], the Ki worked out at 0.48 ± 0.07 nM in experiment [1], 7.74 ± 0.69 nM in experiment [2] and 48.6 ± 6.51 nM in experiment [5]. Moreover, the “radioligand binding affinity (Ki, nM) KOR” value in experiment [1] was “subnanomolar”. In addition, the EC50 in experiment [3] (mMOR-CHO membranes) was 20 ± 3.49 nM; in experiment [4], 137 ± 26.5 nM. Further, the Emax stood at 11.5 ± 0.81% in experiment [3] and 56.4 ± 2.6% in experiment [4]. The ED50 in experiment [6] was found to be 0.553 mg/kg. The “percent MPE” value in experiment [6] was not below 80%.
Regarding `O=C(CCc1ccoc1)N[C@H]1CC[C@@]2(O)[C@H]3Cc4cccc5c4[C@@]2(CCN3CC2CC2)[C@H]1O5` [Compound 2, 17-Cyclopropylmethyl-4,5α-epoxy-6α-[3′-(furan-3″-yl)propanamido]-14β-hydroxymorphinan Hydrochloride], the Ki in experiment [1] is 161 ± 11.8 nM; in experiment [2] it was 54.5 ± 2.01 nM; in experiment [5], 154 ± 26.5 nM. The “selectivity ratio δ/κ” value in experiment [1] is 1. Further, the EC50 in experiment [3] (mMOR-CHO membranes) turned out to be 200 ± 63.1 nM; in experiment [4] it was 429 ± 62.6 nM; in experiment [7], 1010 ± 176 nM. For the same molecule, the Emax in experiment [3] was 8.8 ± 0.55%; in experiment [4] it was more than 80%; in experiment [7], 66.1 ± 5.2%. The “antinociception compared to the vehicle group” value in experiment [6] was “lack of significant antinociceptive effect”.
On to `CN(C(=O)CCc1ccoc1)[C@@H]1CC[C@@]2(O)[C@H]3Cc4cccc5c4[C@@]2(CCN3CC2CC2)[C@H]1O5` [Compound 3, 17-Cyclopropylmethyl-4,5α-epoxy-6β-[3′-(furan-3″-yl)-N-methylpropanamido]-14β-hydroxymorphinan Hydrochloride], for which the figures for the Ki in experiment [1], in experiment [2] and in experiment [5] were 34.5 ± 6.27 nM, 43.8 ± 2.85 nM and 891 ± 52.5 nM, respectively. The “selectivity ratio δ/κ” value in experiment [1] is 26. Moreover, in experiment [1], the “selectivity ratio μ/κ” value amounted to 1. Further, the 50% effective concentration (EC50) in experiment [3] (mMOR-CHO membranes) was 224 ± 44.9 nM; in experiment [4], 5780 ± 829 nM; in experiment [7], 246 ± 29.2 nM. Also, the Emax came to 13.8 ± 1.86% in experiment [3], 66.9 ± 3.52% in experiment [4] and 86.42 ± 0.63% in experiment [7]. In addition, the “antinociception compared to the vehicle group” value in experiment [6] is recorded as “lack of significant antinociceptive effect”.
For `O=C(CCc1ccoc1)N[C@@H]1CC[C@@]2(O)[C@H]3Cc4cccc5c4[C@@]2(CCN3CC2CC2)[C@H]1O5` [Compound 4, 17-Cyclopropylmethyl-4,5α-epoxy-6β-[3′-(furan-3″-yl)propanamido]-14β-hydroxymorphinan Hydrochloride], the results for the inhibition constant Ki in experiment [1], in experiment [2] and in experiment [5] were 8.37 ± 1.44 nM, 17.3 ± 1.68 nM and 749 ± 59.1 nM, respectively. Further, the “selectivity ratio δ/κ” value in experiment [1] was found to be 90. Also, the “selectivity ratio μ/κ” value in experiment [1] turned out to be 2. Besides, the values for the EC50 in experiment [3] (mMOR-CHO membranes), in experiment [4] and in experiment [7] were 185 ± 38 nM, 1690 ± 116 nM and 117 ± 21.2 nM, respectively. Also, the results for the Emax in experiment [3], in experiment [4] and in experiment [7] were 14.2 ± 1.27%, 55.8 ± 2.39% and 81.4 ± 7.72%, respectively.
Consider `CN(C(=O)CCc1ccoc1)[C@H]1CC[C@@]2(O)[C@H]3Cc4ccc(O)c5c4[C@@]2(CCN3CC2CC2)[C@H]1O5` [Compound 5, 17-Cyclopropylmethyl-3,14β-dihydroxy-4,5α-epoxy-6α-[3′-(furan-3″-yl)-N-methylpropanamido]morphinan Hydrochloride], for which the Ki was 0.13 ± 0.02 nM in experiment [1], 0.18 ± 0.02 nM in experiment [2] and 0.59 ± 0.06 nM in experiment [5]. Also, the “radioligand binding affinity (Ki, nM) KOR” value in experiment [1] is reported as “subnanomolar”. Further, the “radioligand binding affinity (Ki, nM) MOR” value in experiment [2] (setting [8]) is listed as “subnanomolar”. The EC50 stood at 0.37 ± 0.05 nM in experiment [3] (mMOR-CHO membranes) and 0.75 ± 0.09 nM in experiment [4]. Also, the maximal response (Emax) amounted to 17.9 ± 1.81% in experiment [3] and 68.3 ± 1% in experiment [4]. For the same molecule, the “radioligand binding affinity (Ki, nM) DOR” value in experiment [5] ([3H]diprenorphine, hDOR-CHO membranes) is reported as “subnanomolar”.
For `CN(C(=O)CCc1ccoc1)[C@@H]1CC[C@@]2(O)[C@H]3Cc4ccc(O)c5c4[C@@]2(CCN3CC2CC2)[C@H]1O5` [Compound 7, 17-Cyclopropylmethyl-3,14β-dihydroxy-4,5α-epoxy-6β-[3′-(furan-3″-yl)-N-methylpropanamido]morphinan Hydrochloride], the Ki is 0.28 ± 0.05 nM in experiment [1], 0.53 ± 0.06 nM in experiment [2] and 8.42 ± 0.9 nM in experiment [5]. Besides, the “radioligand binding affinity (Ki, nM) KOR” value in experiment [1] is “subnanomolar”. In experiment [2] (setting [8]), the “radioligand binding affinity (Ki, nM) MOR” value is “subnanomolar”. For the same molecule, the EC50 came out at 4.3 ± 0.47 nM in experiment [3] (mMOR-CHO membranes), 19.2 ± 1.62 nM in experiment [4] and 0.99 ± 0.04 nM in experiment [7]. Besides, the maximal effect (Emax) in experiment [3] was found to be 12.2 ± 0.92%; in experiment [4], 51.4 ± 2.78%; in experiment [7], 102 ± 1.05%. Also, in experiment [6], the ED50 was found to be 0.443 mg/kg. Besides, the “percent MPE” value in experiment [6] was not below 80%.
With `CN(C(=O)CCc1ccco1)[C@H]1CC[C@@]2(O)[C@H]3Cc4cccc5c4[C@@]2(CCN3CC2CC2)[C@H]1O5` [Compound 9, 17-Cyclopropylmethyl-4,5α-epoxy-6α-[3′-(furan-2″-yl)N-methylpropanamido]-14β-hydroxymorphinan Hydrochloride], the values for the Ki in experiment [1], in experiment [2] and in experiment [5] were 1 ± 0.18 nM, 14.1 ± 1.4 nM and 46.8 ± 8.37 nM, respectively. In experiment [1], the “selectivity ratio δ/κ” value is given as 47. Moreover, in experiment [1], the “selectivity ratio μ/κ” value is recorded as 14. Also, the figures for the EC50 in experiment [3] (mMOR-CHO membranes), in experiment [4] and in experiment [7] were 76.5 ± 48.5 nM, 212 ± 33.8 nM and 18.4 ± 1.05 nM, respectively. Moreover, the Emax in experiment [3] stood at 11.2 ± 1.55%; in experiment [4], 70.5 ± 5.9%; in experiment [7], 91.4 ± 1.46%. Besides, the “antinociception compared to the vehicle group” value in experiment [6] was “lack of significant antinociceptive effect”.
On to `O=C(CCc1ccco1)N[C@H]1CC[C@@]2(O)[C@H]3Cc4cccc5c4[C@@]2(CCN3CC2CC2)[C@H]1O5` [Compound 10, 17-Cyclopropylmethyl-4,5α-epoxy-6α-[3′-(furan-2″-yl)propanamido]-14β-hydroxymorphinan Hydrochloride], for which the Ki in experiment [1] came out at 73.8 ± 12.2 nM; in experiment [2], 53.1 ± 6.06 nM; in experiment [5] it was 90.2 ± 13 nM. Further, in experiment [1], the “selectivity ratio δ/κ” value is 1. Further, in experiment [1], the “selectivity ratio μ/κ” value amounted to 1. Moreover, in experiment [1] (supplement csv), the “Selectivity Ratio DOR/KOR” value is 1. Besides, the “Selectivity Ratio MOR/KOR” value in experiment [1] (supplement csv) was found to be 1. Besides, the EC50 in experiment [3] (mMOR-CHO membranes) came out at 278 ± 107 nM; in experiment [4], 348 ± 40.2 nM; in experiment [7] it was 442 ± 29.9 nM. Also, the values for the maximum response (Emax) in experiment [3], in experiment [4] and in experiment [7] were 10.2 ± 1.33%, more than 80% and 86.5 ± 1.55%, respectively. The “antinociception compared to the vehicle group” value in experiment [6] is “lack of significant antinociceptive effect”.
`CN(C(=O)CCc1ccco1)[C@@H]1CC[C@@]2(O)[C@H]3Cc4cccc5c4[C@@]2(CCN3CC2CC2)[C@H]1O5` [Compound 11, 17-Cyclopropylmethyl-4,5α-epoxy-6β-[3′-(furan-2″-yl)-N-methylpropanamido]-14β-hydroxymorphinan Hydrochloride]: the figures for the Ki in experiment [1], in experiment [2] and in experiment [5] were 50.4 ± 6.84 nM, 93.6 ± 10.4 nM and 532 ± 92.5 nM, respectively. For the same molecule, in experiment [1], the “selectivity ratio δ/κ” value came out at 11. Further, in experiment [1], the “selectivity ratio μ/κ” value is reported as 2. For the same molecule, the EC50 in experiment [3] (mMOR-CHO membranes) was determined as 5620 ± 2130 nM; in experiment [4], 1100 ± 108 nM; in experiment [7], 146 ± 27.1 nM. Also, the Emax is 22.9 ± 2.39% in experiment [3], 61.7 ± 4.27% in experiment [4] and 109 ± 5.9% in experiment [7]. The “antinociception compared to the vehicle group” value in experiment [6] was “lack of significant antinociceptive effect”.
As for `Cl.O=C(CCc1ccco1)N[C@H]1CC[C@@]2(O)[C@H]3Cc4ccc(O)c5c4[C@@]2(CCN3CC2CC2)[C@H]1O5` [Compound 14, 17-Cyclopropylmethyl-3,14β-dihydroxy-4,5α-epoxy-6α-[3′-(furan-2″-yl)propanamido]morphinan Hydrochloride], the “radioligand binding affinity (Ki, nM) MOR” value in experiment [2] (setting [8]) is on record as “subnanomolar”. In experiment [2] ([3H]naloxone, mMOR-CHO membranes, read-out: radioligand binding affinity (Ki, nM) MOR), the Ki is 0.72 ± 0.1 nM. Besides, the Emax in experiment [3] was 21.8 ± 2.76%. Besides, the EC50 in experiment [3] (supplement csv) came out at 2.77 ± 0.73 nM; in experiment [4], 3.55 ± 0.77 nM; in experiment [7], 5.22 ± 0.79 nM. Moreover, the “antinociception compared to the vehicle group” value in experiment [6] was “lack of significant antinociceptive effect”.
Take `CN(C(=O)/C=C/c1ccco1)[C@@H]1CC[C@@]2(O)[C@H]3Cc4cccc5c4[C@@]2(CCN3CC2CC2)[C@H]1O5` [Compound 19, 17-Cyclopropylmethyl-4,5α-epoxy-6β-[(2E)-3′-(furan-2″-yl)-N-methylprop-2-enamido]-14β-hydroxymorphinan Hydrochloride]: the figures for the Ki in experiment [1], in experiment [2] and in experiment [5] were 4.11 ± 0.57 nM, 215 ± 26.5 nM and 2260 ± 338 nM, respectively. For the same molecule, the “selectivity ratio δ/κ” value in experiment [1] is on record as 551. Besides, the “selectivity ratio μ/κ” value in experiment [1] turned out to be 52. Also, the figures for the EC50 in experiment [3] (mMOR-CHO membranes), in experiment [4] and in experiment [7] were 888 ± 363 nM, 5980 ± 581 nM and 53.9 ± 3.33 nM, respectively. Further, the figures for the Emax in experiment [3], in experiment [4] and in experiment [7] were 11 ± 0.68%, more than 80% and 96.9 ± 8.02%, respectively.

The record behind these values is publication PMC11181328 (Journal of Medicinal Chemistry, 2024).
